In article PMC6110851, “An Optimized MicroPET Imaging Method for the Distribution and Synergies of Natural Products” (Frontiers in Pharmacology, 2018):
Read-outs that look alike come from different tables or passages of the source.

Experiments:
[1] = tested on: NF-κB; assay: NF-κB dual luciferase reporter assay in TNF-stimulated HEK 293 T cells; type: cell-based; conditions: after decay of radioactivity, HEK 293T stimulated by TNF-α
Method: The separation process was repeated five times for use in the activity tests. […] After 48 h, radioactive elements had decayed, the residues were stored at 4°C for anti-inflammatory activity tests ([Dong et al., 2013]; [Qingxin et al., 2016]).
HEK 293 T cells were cultured in standard Dulbecco’s modified Eagle’s medium (DMEM; Hyclone) supplemented with 10% fetal bovine serum (FBS; Biological Industries). The cells were placed in 96-well plates at 37°C in an air-CO2 environment (95/5% v/v). Cells were grown to 80–90% confluence and incubated for 12 h in DMEM without FBS. Transfection (20 h) was performed according to the manufacturer’s instructions. HEK 293 T cells were pretreated with drugs 1 h prior to TNF-stimulation (5 ng/mL) for 6 h. Dex (10^-5mol/L) was used as a positive control for NF-κB inhibition. The NF-κB activity was assayed using dual luciferase reporter assay system (Promega) according to the manufacturer’s instructions ([Qingxin et al., 2016]). Antiinflammatory activity was calculated as the ratio of firefly luciferase activity to Renilla luciferase activity (internal control).

[2] = MicroPET distribution of [^18F]-GA after PG polysaccharides intervention; type: in vivo, mice; conditions: for tissue uptake at 1 h: po, read-out: %ID/g of [^18F]-GA in the lungs, OA
Method: The mice were grouped by weight and housed in cages of the climate control room (25°C), with a photoperiod 12:12-h. During feeding, mice were free to access food and water. Mice were fasted for 24 h before the experiment. The mice were anesthetized with 4% isoflurane while preparing for scanning ([Constantinescu et al., 2013b]; [Cui et al., 2017]). Eighteen healthy male Kunming mice, weighing 20 ± 2 g, were divided into three groups, which were control group, once-administered (OA) group and long-term administration (LA) group. In the OA group, 1 h before the administration of [^18F]-GA, the mice were orally treated with PG polysaccharides. In the LA group, the mice were orally given the PG polysaccharides for 7 days, but not before the administration of [^18F]-GA.
Rice received a tail vein injection (8.67 ± 2.14 MBq/μg) of [^18F]-GA and placed in the scanner bed and mouse-imaging room immediately ([Constantinescu et al., 2013b]; [O’Doherty et al., 2017]). Firstly, 2 h PET scanning was performed using an Inveon-dedicated PET scanner. The average delay between injection and starting of PET scanning was 3.5 min. Rice were maintained stable under 4% isoflurane anesthesia throughout scanning. The PET list-mode data were dynamically classified into 23 3D sinograms of span and three ring difference. After Fourier recombination, the data were reconstructed using a 2D ordered-subset expectation maximization algorithm. Random events were excluded before reconstruction. The response of detector is normalized using a component-based approach. All dynamic images were corrected for radioactive decay automatically. The PET images were reconstructed by a cone beam algorithm into 480 × 480 × 632 image arrays. After the reconstruction, images were spatially transformed to match the PET images ([Constantinescu et al., 2013a],[b]).
The reconstruction of the image was performed using the PMOD software (PMOD Technologies). The 3D volumes of interest (VOIs) were drawn manually of the following organs: brain, heart, liver, lungs, kidneys, cortical bone, and gallbladder. The organs were carefully identified and VOIs were drawn as irregular contours on high-resolution PET images obtained from each mouse ([Constantinescu et al., 2013b]; [Garg et al., 2017]). The size of each VOI was less than the actual size of each organ to minimize the effects of PET on adjacent organ spills. The VOIs drawing was verified by a second operator. The VOIs of cortical bone were generated by first using PET image to depict the entire femur bone ([Constantinescu et al., 2013b]). The VOI was transferred to a dynamic PET image and the mean time-activity curve (TAC) of the decay correction was extracted for each target organ ([Constantinescu et al., 2013b]).

CC1(C)[C@@H](O)CC[C@]2(C)[C@H]3C(=O)C=C4[C@@H]5C[C@@](C)(C(=O)NCCCC[18F])CC[C@]5(C)CC[C@@]4(C)[C@]3(C)CC[C@@H]12 [[^18F]-GA, [^18F]-Glycyrrhetinic acid]
inhibition of NF-κB activity ([1]; high concentration): significant inhibition of NF-κB activity | anti-inflammatory activity (NF-κB reporter) ([1]; low concentration): weak anti-inflammatory activity | inhibition of NF-κB activity ([1]; medium concentration): significant inhibition of NF-κB activity | time from which lung %ID/g of OA group differs significantly ([2]; OA vs. Con, Table 2): 7 min | [^18F]-GA concentration of lung, OA group relative to LA group ([2]; area under the curve, OA: PG polysaccharides 1 h before, LA: for 7 days): 2 times | [^18F]-GA concentration of lung, OA group relative to control mice ([2]; area under the curve, PG polysaccharides orally 1 h before [^18F]-GA): 2.7 times | ranking of organ concentration (area under the curve) ([2]; control group, mice): concentration of liver was highest, and the lung was lowest | tissue uptake at 60 s ([2]; male, Kunming, mouse, lungs, intravenous, mice, control group, Time(s) 60, read-out: %ID/g of [^18F]-GA in the lungs, Con): 8.86 %ID/g | tissue uptake at 180 s ([2]; male, Kunming, mouse, lungs, intravenous, mice, control group, Time(s) 180, read-out: %ID/g of [^18F]-GA in the lungs, Con): 4.36 %ID/g | tissue uptake at 300 s ([2]; male, Kunming, mouse, lungs, intravenous, mice, control group, Time(s) 300, read-out: %ID/g of [^18F]-GA in the lungs, Con): 3.29 %ID/g | tissue uptake at 420 s ([2]; male, Kunming, mouse, lungs, intravenous, mice, control group, Time(s) 420, read-out: %ID/g of [^18F]-GA in the lungs, Con): 2.78 %ID/g | tissue uptake at 540 s ([2]; male, Kunming, mouse, lungs, intravenous, mice, control group, Time(s) 540, read-out: %ID/g of [^18F]-GA in the lungs, Con): 2.42 %ID/g | tissue uptake at 780 s ([2]; male, Kunming, mouse, lungs, intravenous, mice, control group, Time(s) 780, read-out: %ID/g of [^18F]-GA in the lungs, Con): 2.1 %ID/g | tissue uptake at 900 s ([2]; male, Kunming, mouse, lungs, intravenous, mice, control group, Time(s) 900, read-out: %ID/g of [^18F]-GA in the lungs, Con): 2.15 %ID/g | tissue uptake at 1020 s ([2]; male, Kunming, mouse, lungs, intravenous, mice, control group, Time(s) 1020, read-out: %ID/g of [^18F]-GA in the lungs, Con): 2.09 %ID/g | tissue uptake at 1140 s ([2]; male, Kunming, mouse, lungs, intravenous, mice, control group, Time(s) 1140, read-out: %ID/g of [^18F]-GA in the lungs, Con): 1.9 %ID/g | tissue uptake at 1350 s ([2]; male, Kunming, mouse, lungs, intravenous, mice, control group, Time(s) 1350, read-out: %ID/g of [^18F]-GA in the lungs, Con): 1.75 %ID/g | tissue uptake at 1650 s ([2]; male, Kunming, mouse, lungs, intravenous, mice, control group, Time(s) 1650, read-out: %ID/g of [^18F]-GA in the lungs, Con): 1.66 %ID/g | tissue uptake at 1950 s ([2]; male, Kunming, mouse, lungs, intravenous, mice, control group, Time(s) 1950, read-out: %ID/g of [^18F]-GA in the lungs, Con): 1.55 %ID/g | tissue uptake at 2250 s ([2]; male, Kunming, mouse, lungs, intravenous, mice, control group, Time(s) 2250, read-out: %ID/g of [^18F]-GA in the lungs, Con): 1.51 %ID/g | tissue uptake at 2700 s ([2]; male, Kunming, mouse, lungs, intravenous, mice, control group, Time(s) 2700, read-out: %ID/g of [^18F]-GA in the lungs, Con): 1.34 %ID/g | tissue uptake at 3300 s ([2]; male, Kunming, mouse, lungs, intravenous, mice, control group, Time(s) 3300, read-out: %ID/g of [^18F]-GA in the lungs, Con): 1.26 %ID/g | tissue uptake at 3900 s ([2]; male, Kunming, mouse, lungs, intravenous, mice, control group, Time(s) 3900, read-out: %ID/g of [^18F]-GA in the lungs, Con): 1.23 %ID/g | tissue uptake at 4500 s ([2]; male, Kunming, mouse, lungs, intravenous, mice, control group, Time(s) 4500, read-out: %ID/g of [^18F]-GA in the lungs, Con): 1.05 %ID/g | tissue uptake at 5100 s ([2]; male, Kunming, mouse, lungs, intravenous, mice, control group, Time(s) 5100, read-out: %ID/g of [^18F]-GA in the lungs, Con): 1.04 %ID/g | tissue uptake at 5700 s ([2]; male, Kunming, mouse, lungs, intravenous, mice, control group, Time(s) 5700, read-out: %ID/g of [^18F]-GA in the lungs, Con): 1.02 %ID/g | tissue uptake at 6300 s ([2]; male, Kunming, mouse, lungs, intravenous, mice, control group, Time(s) 6300, read-out: %ID/g of [^18F]-GA in the lungs, Con): 0.97 %ID/g | tissue uptake at 6900 s ([2]; male, Kunming, mouse, lungs, intravenous, mice, control group, Time(s) 6900, read-out: %ID/g of [^18F]-GA in the lungs, Con): 0.94 %ID/g | tissue uptake at 1 h ([2]; male, Kunming, mouse, lungs, mice, PG polysaccharides orally 1 h before [^18F]-GA, Time(s) 60): 8.21 %ID/g | tissue uptake at 1 h ([2]; male, Kunming, mouse, lungs, mice, PG polysaccharides orally 1 h before [^18F]-GA, Time(s) 180): 5.95 %ID/g | tissue uptake at 1 h ([2]; male, Kunming, mouse, lungs, mice, PG polysaccharides orally 1 h before [^18F]-GA, Time(s) 300): 5.53 %ID/g | tissue uptake at 1 h ([2]; male, Kunming, mouse, lungs, mice, PG polysaccharides orally 1 h before [^18F]-GA, Time(s) 420): 5.2 %ID/g | tissue uptake at 1 h ([2]; male, Kunming, mouse, lungs, mice, PG polysaccharides orally 1 h before [^18F]-GA, Time(s) 540): 4.85 %ID/g | tissue uptake at 1 h ([2]; male, Kunming, mouse, lungs, mice, PG polysaccharides orally 1 h before [^18F]-GA, Time(s) 660): 4.63 %ID/g | tissue uptake at 1 h ([2]; male, Kunming, mouse, lungs, mice, PG polysaccharides orally 1 h before [^18F]-GA, Time(s) 780): 4.54 %ID/g | tissue uptake at 1 h ([2]; male, Kunming, mouse, lungs, mice, PG polysaccharides orally 1 h before [^18F]-GA, Time(s) 900): 4.53 %ID/g | tissue uptake at 1 h ([2]; male, Kunming, mouse, lungs, mice, PG polysaccharides orally 1 h before [^18F]-GA, Time(s) 1020): 4.35 %ID/g
